Data on 7 molecules can be found in patent US20250179047A1, “5-[7-(3,4-DIHYDRO-1H-ISOQUINOLINE-2-CARBONYL)-1,2,3,4 TETRAHYDROISOQUINOLIN-6-YL]-1H-PYRROLE-3-CARBOXAMIDE DERIVATIVES, PHARMACEUTICAL COMPOSITIONS CONTAINING THEM AND THEIR USES AS PRO-APOPTOTIC AGENTS” (LES LABORATOIRES SERVIER, priority 2022, published 2025).

One assay concerns KMS-12-PE Bcl-2 WT. Briefly: In vitro cytotoxicity CellTiter-Glo 48 h, KMS-12-PE Bcl-2 WT. In kind it is cell-based. Conditions: Homo sapiens, KMS-12-PE, C50 = concentration needed to reach 50% of the cellular viability. A digest of the protocol: (§1)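 Viability measured by CellTiter-Glo luminescence after 48 h compound exposure (11-point curve, 37 °C, 5% CO2). Cells: KMS-12-PE transduced with wild-type or G101V-mutant Bcl-2, FACS-sorted for TagRFP. Reported C50 = concentration reaching 50% cellular viability.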
On the technique in general: ATP-based viability assays read luminescence as a measure of living cells.

The target in the next assay is BCL2 WT (Homo sapiens (Human), UniProt P10415). Briefly: TR-FRET competitive binding assay, BCL2 WT. The settings on record: Ki determined from IC50, read-out: TR_FRET EKI_Bcl2 WT. An outline of the steps: (§2)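 Ki derived from IC50 (11-point dilution, 520/495 nm emission ratio) for displacing a fluorescein-labelled PUMA peptide (2 or 20 nM). Target was 0.5 nM E. coli-expressed Halo-tagged BCL2 (1-207) or BCLXL (2-196), terbium-labelled on Halo. Incubation 2 h at 23°C in pH 7.5 Hepes with 150 mM NaCl and 5% DMSO.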
A general note: Time-resolved FRET reads energy transfer from a long-lived donor to a nearby acceptor.

For assay [1], the system named is BCL2 G101V. Briefly: TR-FRET competitive binding assay, BCL2 G101V. Also on record: species or system human. The settings on record: ratio Ki BCL2 G101V / Ki BCL2 WT. An outline of the steps:
as §2

Assay [2] deals with BCL2 G101V (Homo sapiens, UniProt P10415, G101V). Kind of assay: TR-FRET competitive binding assay, BCL2 G101V. Conditions: BCL2 G101V; Ki determined from IC50; read-out: TR_FRET EKI_Bcl2 G101V. An outline of the steps: as §2
The next assay deals with BCL2 F104I (Homo sapiens, UniProt P10415, F104I). Kind of assay: TR-FRET competitive binding assay, BCL2 F104I. Conditions: Ki determined from IC50, read-out: TR_FRET EKI_Bcl2 F104I. How it is done:
The relative binding potency of each compound was determined in a competitive binding assay using time resolved-fluorescence resonance energy transfer (TR-FRET). The method utilised a fluorescein labelled peptide derived from PUMA (5Flu-Ahx-[…]-NH2 wherein Ahx means 6-hexanoic acid monomer and the amino acid sequence is referred to as SEQ ID:01) which binds to a terbium labelled BCL2 or BCLXL protein. The degree of binding or corresponding compound inhibition can be quantified by the TR-FRET signal between the terbium donor and fluorescein acceptor.
The human BCL2_wild-type (also named BCL2_wt), BCL2_G101V mutant and BCLXL_wild-type were E. coli expressed as a N-terminal Halo-fusion proteins and singly labelled with Terbium on the Halo protein to afford the following amino acid sequences:
wherein the BCL2(1-207) sequence corresponds to UniProtKB® primary accession number P10415 and the BCLXL(2-196) sequence corresponds to UniProtKB® primary accession number Q07817-1.
The assay was performed in a 40 μL volume in white 384-standard well plates (Corning #3574). An 11-point serial dilution of each compound was prepared in DMSO and transferred directly to plate followed by addition of fluorescein labelled peptide and lastly protein. Final assay conditions were 0.5 nM BCL2_wt, BCL2_G101V, BCL2_D103Y, BCL2_F104I, BCL2_D111A or BCLXL_wt, 2 or 20 nM fluorescein labelled peptide, 50 mM Hepes pH 7.5, 150 mM NaCl, 0.5 mM TCEP (Tris(2-carboxyethyl)phosphine), 0.05% Tween 20, 5% DMSO. The mixture was incubated for 2 hours at 23° C.
TR-FRET measurements were performed on a Biotek Synergy Neo plate reader. TR-FRET was measured by excitation of the Terbium-donor at 340 nm and subsequent (delay time 100 μs) measurement of terbium and fluorescein emission at 495 nm and 520 nm, respectively, over a collection time of 300 μs. The TR-FRET signal was calculated as the emission-ratio at 520 nm over 495 nm.
The TR-FRET ratio readout for test compounds was normalized against 0% inhibition controls wells and 100% inhibition control wells. Test compound potency (IC50) was estimated by nonlinear regression using the sigmoidal dose-response (variable slope) using Xlfit 4 (IDBS, Guildford, Surrey, UK, model 205). Were the IC50 could not be determined the % inhibition at the highest tested concentration is given.
y=(A+((B−A)/(1+((C/x)^D))))
where y is the normalized TR-TRET ratio measurement for a given concentration of test compound, x is the concentration of test compound, A is the estimated efficacy (% inhibition) at infinite compound dilution, and B is the maximal efficacy (% inhibition). C is the IC50 value and D is the Hill slope coefficient.
The K1 values were determined from the IC50 values according to Cer et al, Nucleic Acids Res, 2009, July 1; 37 (WebServer issue): W441-W445.

The next assay has as its system KMS-12-PE Bcl-2 G101V. Kind of assay: In vitro cytotoxicity CellTiter-Glo 48 h, KMS-12-PE Bcl-2 G101V. It is filed as cell-based. Conditions: for Ratio (G101V/WT): C50 KMS-12-PE Bcl-2 G101V over C50 KMS-12-PE Bcl-2 WT; for IC50: Homo sapiens, KMS-12-PE, 48 h, CellTiter-Glo, C50 = concentration needed to reach 50% of the cellular viability. A digest of the protocol:
as §1

The target of another assay is BCL2 D103Y (Homo sapiens, UniProt P10415, D103Y). Kind of assay: TR-FRET competitive binding assay, BCL2 D103Y. Conditions: Ki determined from IC50, read-out: TR_FRET EKI_Bcl2 D103Y. An outline of the steps: as §2
The target of a further assay is BCLXL WT (Homo sapiens (Human), UniProt Q07817). Kind of assay: TR-FRET competitive binding assay, BCLXL WT. Conditions: for Ki: BCLXL WT, Ki determined from IC50, read-out: TR_FRET EKI BclxL; for TR_FRET EKI BCLxL/WT selectivty ratio: ratio Ki BCLxL / Ki BCL2 WT. An outline of the steps:
as §2

Molecules are shown by their SMILES.

Chain of BCLXL WT (Q07817 other isoform, or with tags, fused parts or gaps): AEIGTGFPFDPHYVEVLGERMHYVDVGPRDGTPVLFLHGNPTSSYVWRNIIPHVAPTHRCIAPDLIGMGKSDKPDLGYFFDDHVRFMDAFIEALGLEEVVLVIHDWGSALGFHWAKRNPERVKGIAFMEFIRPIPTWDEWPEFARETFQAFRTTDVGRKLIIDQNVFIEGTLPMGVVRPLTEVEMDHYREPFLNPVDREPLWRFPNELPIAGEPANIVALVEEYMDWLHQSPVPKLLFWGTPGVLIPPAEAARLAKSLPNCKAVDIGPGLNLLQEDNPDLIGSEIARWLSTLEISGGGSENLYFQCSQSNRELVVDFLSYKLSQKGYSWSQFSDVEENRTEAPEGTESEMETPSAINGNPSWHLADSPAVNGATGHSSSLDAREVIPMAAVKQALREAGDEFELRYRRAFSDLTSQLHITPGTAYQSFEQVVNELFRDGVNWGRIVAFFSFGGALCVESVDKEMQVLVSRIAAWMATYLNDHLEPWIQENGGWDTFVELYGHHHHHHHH

A word on the IC50: it is the point on the concentration scale where inhibition reaches its midpoint. Low values mean greater potency in that assay, high ones weaker potency in that assay. For the molecule `Cc1cccc(CC(=O)N2CCc3cc(-c4cc(C(=O)N(c5ccc(O)cc5)c5cc(C#N)n(C)c5C)c(C)n4C)c(C(=O)N4Cc5ccccc5C[C@H]4C)cc3C2)c1` [Example 1, N-(5-cyano-1,2-dimethyl-1H-pyrrol-3-yl)-N-(4-hydroxyphenyl)-1,2-dimethyl-5-{7-[(3R)-3-methyl-1,2,3,4-tetrahydroisoquinoline-2-carbonyl]-2-[2-(3-methylphenyl)acetyl]-1,2,3,4-tetrahydroisoquinolin-6-yl}-1H-pyrrole-3-carboxamide], the IC50 stood at 0.0087 µM in the assay with KMS-12-PE Bcl-2 WT and 0.0776 µM in the assay on KMS-12-PE Bcl-2 G101V. In addition, the Ki was 0.34 nM on BCL2 WT, 2.2 nM at BCL2 G101V [2] and 6.12 nM on BCL2 F104I. Besides, the “TR_FRET EKI G101V/WT selectivty ratio” value with BCL2 G101V [1] is on record as 6.5. For the same molecule, the “Ratio (G101V/WT)” value in the assay on KMS-12-PE Bcl-2 G101V is 8.92.
Take `Cc1c(N(C(=O)c2cc(-c3cc4c(cc3C(=O)N3Cc5ccccc5C[C@H]3C)CN(C(=O)COc3ccccc3)CC4)n(C)c2C)c2ccc(O)cc2)cc(C#N)n1C` [Example 2, N-(5-cyano-1,2-dimethyl-1H-pyrrol-3-yl)-N-(4-hydroxyphenyl)-1,2-dimethyl-5-{7-[(3R)-3-methyl-1,2,3,4-tetrahydroisoquinoline-2-carbonyl]-2-(2-phenoxyacetyl)-1,2,3,4-tetrahydroisoquinolin-6-yl}-1H-pyrrole-3-carboxamide]: the results for the IC50 in the assay on KMS-12-PE Bcl-2 WT and in the assay on KMS-12-PE Bcl-2 G101V were 0.004 µM and 0.02 µM, respectively. Also, the Ki is 1.09 nM on BCL2 D103Y; 0.17 nM at BCL2 WT; 0.5 nM at BCL2 G101V [2]; 2.1 nM on BCLXL WT; 3.08 nM at BCL2 F104I. Also, the “TR_FRET EKI G101V/WT selectivty ratio” value in the assay on BCL2 G101V [1] was determined as 3.0. The “TR_FRET EKI BCLxL/WT selectivty ratio” value at BCLXL WT amounted to 12.7. In addition, the “Ratio (G101V/WT)” value with KMS-12-PE Bcl-2 G101V was 5.04.
`Cc1c(C(=O)N(c2ccccc2)c2cc(C#N)n(CCO)c2C)cc(-c2cc3c(cc2C(=O)N2Cc4ccccc4C[C@H]2C)CN(C(=O)Cc2ccccc2)CC3)n1C` [Example 4, N-[5-cyano-1-(2-hydroxyethyl)-2-methyl-pyrrol-3-yl]-1,2-dimethyl-5-[7-[(3R)-3-methyl-3,4-dihydro-1H-isoquinoline-2-carbonyl]-2-(2-phenylacetyl)-3,4-dihydro-1H-isoquinolin-6-yl]-N-phenyl-pyrrole-3-carboxamide]: the IC50 with KMS-12-PE Bcl-2 WT came out at 0.0048 µM; with KMS-12-PE Bcl-2 G101V, 0.124 µM. Besides, the Ki at BCL2 WT is 0.11 nM; at BCL2 G101V [2] it was 3.2 nM; at BCL2 F104I it was 11.9 nM. For the same molecule, the “TR_FRET EKI G101V/WT selectivty ratio” value in the assay with BCL2 G101V [1] worked out at 30.2. The “Ratio (G101V/WT)” value in the assay on KMS-12-PE Bcl-2 G101V amounted to 25.9.
In the case of `Cc1c(N(C(=O)c2cc(-c3cc4c(cc3C(=O)N3Cc5ccccc5C[C@H]3C)CN(C(=O)Cc3ccc(F)cc3)CC4)n(C)c2C)c2ccc(O)cc2)cc(C#N)n1C` [Example 5, N-(5-cyano-1,2-dimethyl-1H-pyrrol-3-yl)-5-{2-[2-(4-fluorophenyl)acetyl]-7-[(3R)-3-methyl-1,2,3,4-tetrahydroisoquinoline-2-carbonyl]-1,2,3,4-tetrahydroisoquinolin-6-yl}-N-(4-hydroxyphenyl)-1,2-dimethyl-1H-pyrrole-3-carboxamide], the IC50 with KMS-12-PE Bcl-2 WT came out at 0.0057 µM; in the assay with KMS-12-PE Bcl-2 G101V, 0.0285 µM. The Ki at BCL2 WT was 0.18 nM; on BCL2 G101V [2] it was 1.3 nM; at BCL2 F104I, 4.45 nM. Further, the “TR_FRET EKI G101V/WT selectivty ratio” value in the assay with BCL2 G101V [1] is on record as 7.3. Besides, the “Ratio (G101V/WT)” value in the assay with KMS-12-PE Bcl-2 G101V is given as 4.98.
As to `COc1cccc(CC(=O)N2CCc3cc(-c4cc(C(=O)N(c5ccc(O)cc5)c5cc(C#N)n(C)c5C)c(C)n4C)c(C(=O)N4Cc5ccccc5C[C@H]4C)cc3C2)c1` [Example 7, N-(5-cyano-1,2-dimethyl-1H-pyrrol-3-yl)-N-(4-hydroxyphenyl)-5-{2-[2-(3-methoxyphenyl)acetyl]-7-[(3R)-3-methyl-1,2,3,4-tetrahydroisoquinoline-2-carbonyl]-1,2,3,4-tetrahydroisoquinolin-6-yl}-1,2-dimethyl-1H-pyrrole-3-carboxamide], the results for the IC50 in the assay with KMS-12-PE Bcl-2 WT and with KMS-12-PE Bcl-2 G101V were 0.0058 µM and 0.0713 µM, respectively. For the same molecule, the Ki on BCL2 D103Y was 0.88 nM; at BCL2 WT it was 0.14 nM; on BCL2 G101V [2], 0.8 nM; at BCL2 F104I, 2.6 nM. In addition, the “TR_FRET EKI G101V/WT selectivty ratio” value with BCL2 G101V [1] is given as 5.7. Also, the “Ratio (G101V/WT)” value with KMS-12-PE Bcl-2 G101V amounted to 12.2.
With `Cc1c(N(C(=O)c2cc(-c3cc4c(cc3C(=O)N3Cc5ccccc5C[C@H]3C)CN(C(=O)Cc3cccc(N5CCN6CCOC[C@@H]6C5)c3)CC4)n(C)c2C)c2ccccc2)cc(C#N)n1C` [Example 8, 5-[2-(2-{3-[(9aS)-hexahydro-1H-piperazino[2,1-c]morpholin-8-yl]phenyl}acetyl)-7-{[(3R)-3-methyl-3,4-dihydro-1H-isoquinolin-2-yl]carbonyl}-3,4-dihydro-1H-isoquinolin-6-yl]-N-(5-cyano-1,2-dimethylpyrrol-3-yl)-1,2-dimethyl-N-phenylpyrrole-3-carboxamide], the values for the IC50 in the assay on KMS-12-PE Bcl-2 WT and with KMS-12-PE Bcl-2 G101V were 0.0026 µM and 0.0727 µM, respectively. For the same molecule, the Ki was 0.06 nM on BCL2 WT, 1.2 nM on BCL2 G101V [2], 2.8 nM at BCLXL WT and 3.46 nM on BCL2 F104I. For the same molecule, in the assay on BCL2 G101V [1], the “TR_FRET EKI G101V/WT selectivty ratio” value was found to be 20.3. The “TR_FRET EKI BCLxL/WT selectivty ratio” value on BCLXL WT is given as 47.46. Moreover, the “Ratio (G101V/WT)” value in the assay with KMS-12-PE Bcl-2 G101V is recorded as 27.6.
In the case of `Cc1cc(O)ccc1N(C(=O)c1cc(-c2cc3c(cc2C(=O)N2Cc4ccccc4C[C@H]2C)CN(C(=O)Cc2ccccc2)CC3)n(C)c1C)c1cc(C#N)n(C)c1C` [Example 9, N-(5-cyano-1,2-dimethyl-1H-pyrrol-3-yl)-N-(4-hydroxy-2-methylphenyl)-1,2-dimethyl-5-{7-[(3R)-3-methyl-1,2,3,4-tetrahydroisoquinoline-2-carbonyl]-2-(2-phenylacetyl)-1,2,3,4-tetrahydroisoquinolin-6-yl}-1H-pyrrole-3-carboxamide], the IC50 in the assay with KMS-12-PE Bcl-2 WT was 0.0254 µM; in the assay with KMS-12-PE Bcl-2 G101V, 0.178 µM. For the same molecule, the Ki at BCL2 D103Y was determined as 1.27 nM; at BCL2 WT it was 0.48 nM; on BCL2 G101V [2], 2.8 nM; at BCL2 F104I, 17.9 nM. In the assay on BCL2 G101V [1], the “TR_FRET EKI G101V/WT selectivty ratio” value was 5.8. Besides, the “Ratio (G101V/WT)” value in the assay with KMS-12-PE Bcl-2 G101V is on record as 7.01.
